Series [1] in a line: Plasma protein binding, rapid equilibrium dialysis (human). Type of series: in vitro ADME. As to conditions: read-out: plasma binding (human) protein binding (converted). As to the method: This assay determines the plasma protein binding of a drug or compound and free drug concentration in plasma using rapid equilibrium dialysis. We use the Single-Use RED (rapid equilibrium dialysis, Thermo Scientific) devices to allow the aqueous component of plasma containing the free drug/compound through a dialysis membrane (MWCO ∼ 8000). Sample quantification is determined using a Waters ACQUITY-SOQ UPLC-MS-ELDS-UV system.
In general terms: Equilibrium dialysis compares concentrations on both sides of a semipermeable membrane.

Series [2] deals with T1, CYP3A4 (Homo sapiens, UniProt P08684).
T1 construct: from tissue; host or cells: pooled human liver microsomes
The series can be described thus: Microsomal CYP inhibition assay, CYP3A4. As to conditions: pooled human liver microsomes. It is filed as in vitro ADME. As to the method:
(§1) To assess potential cardiotoxicity, we performed the human ether-go-go-related gene (hERG) inhibition assay. […] Briefly, EP was tested at six concentrations (cumulative concentration–response). […] For hepatotoxicity determination, we performed the microsomal CYP inhibition assay. Briefly, EP was incubated at seven increasing concentrations with pooled human liver microsomes. […] The supernatants were analyzed by LC-MS/MS.
Background: Liver microsomes are a subcellular fraction often used to study metabolism.

Series [3] addresses T2, CYP2C9 (Homo sapiens, UniProt P11712).
T2 construct: from tissue; host or cells: pooled human liver microsomes
Put plainly: Microsomal CYP inhibition assay, CYP2C9. Type of series: in vitro ADME. As to the method:
as §1

Series [4] addresses CYP2D6 (Homo sapiens, UniProt P10635). The series can be described thus: Microsomal CYP inhibition assay, CYP2D6. It is filed as in vitro ADME. As to conditions: pooled human liver microsomes, probe dextromethorphan. On the procedure: as §1
For series [5], the target named is T3, CYP1A2 (Homo sapiens, UniProt P05177).
T3 construct: from tissue; host or cells: pooled human liver microsomes
T3 sequence (P05177 1-516): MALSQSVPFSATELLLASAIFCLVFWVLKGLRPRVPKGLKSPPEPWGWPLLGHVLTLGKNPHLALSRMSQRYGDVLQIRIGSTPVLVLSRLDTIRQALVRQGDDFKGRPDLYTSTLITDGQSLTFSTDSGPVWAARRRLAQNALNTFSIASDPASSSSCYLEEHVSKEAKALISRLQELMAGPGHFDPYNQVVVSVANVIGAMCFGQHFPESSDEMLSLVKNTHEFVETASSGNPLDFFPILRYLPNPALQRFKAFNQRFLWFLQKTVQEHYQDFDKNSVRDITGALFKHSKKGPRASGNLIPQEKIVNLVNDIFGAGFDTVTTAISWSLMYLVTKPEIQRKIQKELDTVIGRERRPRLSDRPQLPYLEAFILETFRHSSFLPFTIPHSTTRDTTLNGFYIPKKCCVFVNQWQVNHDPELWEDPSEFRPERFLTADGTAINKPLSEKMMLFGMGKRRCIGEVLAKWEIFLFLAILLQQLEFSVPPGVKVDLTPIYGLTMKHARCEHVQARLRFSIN
Put plainly: Microsomal CYP inhibition assay, CYP1A2. Type of series: in vitro ADME. As to conditions: pooled human liver microsomes, probe tacrine. On the procedure: as §1

Series [6] addresses T4, CYP2C8 (Homo sapiens, UniProt P10632).
T4 sequence (P10632 1-490): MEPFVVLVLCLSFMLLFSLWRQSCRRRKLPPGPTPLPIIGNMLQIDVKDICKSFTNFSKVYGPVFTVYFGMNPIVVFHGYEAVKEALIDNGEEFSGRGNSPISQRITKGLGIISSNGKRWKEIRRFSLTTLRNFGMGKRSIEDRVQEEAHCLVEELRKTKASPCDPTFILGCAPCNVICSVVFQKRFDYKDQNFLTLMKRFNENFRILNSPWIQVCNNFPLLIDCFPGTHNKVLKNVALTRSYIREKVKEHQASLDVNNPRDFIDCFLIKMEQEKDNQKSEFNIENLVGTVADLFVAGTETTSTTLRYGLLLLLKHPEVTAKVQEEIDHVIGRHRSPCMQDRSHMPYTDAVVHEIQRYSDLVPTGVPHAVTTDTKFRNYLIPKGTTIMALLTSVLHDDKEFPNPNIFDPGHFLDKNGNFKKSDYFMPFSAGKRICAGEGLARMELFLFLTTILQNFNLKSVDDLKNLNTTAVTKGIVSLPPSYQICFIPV
The series can be described thus: Microsomal CYP inhibition assay, CYP2C8. Type of series: in vitro ADME. As to conditions: pooled human liver microsomes, probe amodiaquine. As to the method:
as §1

Series [7] is described as follows: Plasma stability assay (mouse).
Procedure: Briefly, pooled blood from 3 animals for experiment (male Balb/c 6–8w from the division of laboratory animal medicine in-house breeding colony) was collected, and the heparinized plasma was prepared. Plasma and test compounds were added to individual wells of a 96-well microtiter plate. Compounds were incubated at 37 °C for the provided time points. All tests were performed in triplicates. The test compound was incubated with plasma at six different time points. The reaction was terminated by methanol containing an internal standard. After centrifugation, the concentration of the test compound in the supernatant was quantified by LC-MS/MS.
Plasma stability assay: Briefly, pooled blood from 3 animals for experiment (male Balb/c 6-8w
from the division of laboratory animal medicine in-house breeding colony) was collected, and
the heparinized plasma was prepared. Plasma and test compounds were added to the individual
wells of a 96-well microtiter plate. Compounds were incubated at 37°C for the provided time
points. All tests were performed in triplicates. Then, the test compound was incubated with
plasma at six different time points. The reaction was terminated by the addition of methanol
containing an internal standard. After centrifugation, the concentration of the test compound in
the supernatant was quantified by LC-MS/MS. The percentage of test compound remaining at
compounds are known to be metabolized by plasma esterases,1 and were also incubated with
each batch of test compound.
A standard protocol and MS method was used for the plasma stability experiment. The extraction
procedure for plasma/tissue samples and the spiked plasma/tissue calibration standards were
identical: A 25 µL of study sample or spiked plasma/tissue calibration standard was added to
individual pre-labeled micro-centrifuge tubes followed by 100 µL of internal standard prepared
in Acetonitrile (Albendazole, 500 ng/mL) was added except for blank, where 100 µL of
Acetonitrile was added. Samples were vortexed for 5 minutes. Samples were centrifuged for 5
minutes at a speed of 4000 rpm at 4°C. Following centrifugation, 100 µL of clear supernatant
was transferred in 96 well plates and analyzed using LC-MS/MS mode. The LC system
comprises of a binary pump that can mix two mobile phases: A = Water+0.1% formic acid; B =
acetonitrile +0.1%formic acid. The system was operated in gradient mode using a 6 minute
min, 10-90% A to B in 5.5-6 min, and then hold at this gradient, using a Phenomenex Luna, 150
X 4.6 mm, 5 µm column. Source Parameter: positive, Ion Spray Voltage 5500, Temperature
550C, interface heater on.
A short description of series [8]: Plasma stability assay (human).

Each structure is given as a SMILES string. Like-named read-outs stand apart in the source and are kept apart here.

T1 sequence (P08684 whole entry): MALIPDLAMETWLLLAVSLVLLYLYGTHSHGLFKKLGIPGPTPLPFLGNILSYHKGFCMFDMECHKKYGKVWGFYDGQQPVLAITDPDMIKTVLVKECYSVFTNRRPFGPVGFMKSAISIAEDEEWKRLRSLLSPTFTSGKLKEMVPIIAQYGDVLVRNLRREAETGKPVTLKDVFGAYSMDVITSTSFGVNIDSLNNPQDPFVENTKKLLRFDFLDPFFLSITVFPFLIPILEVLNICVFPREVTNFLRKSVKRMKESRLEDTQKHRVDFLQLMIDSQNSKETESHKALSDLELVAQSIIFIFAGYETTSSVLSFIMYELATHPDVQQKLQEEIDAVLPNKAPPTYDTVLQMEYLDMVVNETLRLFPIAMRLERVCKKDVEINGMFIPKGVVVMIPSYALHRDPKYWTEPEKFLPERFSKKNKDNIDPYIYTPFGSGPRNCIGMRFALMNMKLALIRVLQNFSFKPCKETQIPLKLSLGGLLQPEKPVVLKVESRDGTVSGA
T2 sequence (P11712 whole entry): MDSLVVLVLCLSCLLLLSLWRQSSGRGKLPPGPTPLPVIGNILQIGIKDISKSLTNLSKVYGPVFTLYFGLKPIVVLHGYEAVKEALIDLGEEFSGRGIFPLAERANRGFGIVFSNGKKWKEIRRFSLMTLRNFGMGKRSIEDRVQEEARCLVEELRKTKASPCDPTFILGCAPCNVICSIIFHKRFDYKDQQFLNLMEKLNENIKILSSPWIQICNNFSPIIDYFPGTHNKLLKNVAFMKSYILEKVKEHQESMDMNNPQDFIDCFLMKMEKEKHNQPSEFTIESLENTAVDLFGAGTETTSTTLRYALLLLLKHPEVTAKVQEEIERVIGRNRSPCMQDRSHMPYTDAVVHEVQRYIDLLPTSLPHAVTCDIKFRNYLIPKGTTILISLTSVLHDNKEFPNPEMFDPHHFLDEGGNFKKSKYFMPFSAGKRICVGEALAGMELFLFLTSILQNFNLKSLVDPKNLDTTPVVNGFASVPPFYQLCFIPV
Chain of CYP2D6 (P10635 whole entry): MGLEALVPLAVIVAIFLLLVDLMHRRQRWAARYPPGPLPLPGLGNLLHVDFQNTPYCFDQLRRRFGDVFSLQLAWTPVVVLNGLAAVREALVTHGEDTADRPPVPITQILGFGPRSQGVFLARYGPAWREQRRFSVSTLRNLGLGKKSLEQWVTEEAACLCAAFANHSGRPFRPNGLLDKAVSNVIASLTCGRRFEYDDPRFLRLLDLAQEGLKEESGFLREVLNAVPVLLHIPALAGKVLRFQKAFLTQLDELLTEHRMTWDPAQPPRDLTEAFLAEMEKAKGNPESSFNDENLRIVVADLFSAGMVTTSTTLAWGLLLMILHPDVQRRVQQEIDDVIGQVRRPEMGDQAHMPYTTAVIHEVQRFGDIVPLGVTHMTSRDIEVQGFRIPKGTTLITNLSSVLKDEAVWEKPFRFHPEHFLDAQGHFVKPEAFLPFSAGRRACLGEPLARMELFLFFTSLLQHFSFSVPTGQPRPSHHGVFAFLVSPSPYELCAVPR

Take `CC(C)[C@@H](C)/C=C/[C@@H](C)[C@H]1CC[C@@H]2[C@]1(C)CC[C@H]1[C@]23C=C[C@]2(C[C@@H](O)CC[C@]12C)OO3` [Compound 2, Ergosterol peroxide]: in series [1], the fraction unbound was 0.28. Also, the IC50 in series [2] (probe midazolam, read-out: CYP3A4-Midazolam inhibition) was > 25 µM; in series [2] (probe testosterone, read-out: CYP3A4-Testos-terone inhibition), > 25 µM; in series [3], > 25 µM; in series [4] it was > 25 µM; in series [5], 16.3 µM; in series [6], 9.9 µM. Besides, the half-life in series [7] (male, Balb/c, mouse, plasma) was > 48 h; in series [8], > 48 h. For the same compound, in series [7] (species not specified), the plasma stability is listed as > 48 h.

In general, half-life refers to the time in which the quantity being followed falls by half.

The values above are taken from paper PMC11375702, “Early Preclinical Studies of Ergosterol Peroxide and Biological Evaluation of Its Derivatives” (ACS Omega, 2024).
